According to ChEMBL document CHEMBL3272043, “Isoxazole anthelmintics” (1977):
Activity calls are given as the source filed them. The rule behind the calls is not given here.

test system: Nippostrongylus brasiliensis; experiment: Anthelmintic activity against Nippostrongylus brasiliensisin in parasitized albino rat assessed as dose required to 75 % clearance at 500 mg/kg, po relative to untreated control; assay type: functional, organism-based; set-up: dose 500 mg/kg; details: not given

SMILES	Activity
FC(F)(F)c1cc(-c2ccccc2)on1	inactive
COc1onc(-c2ccccc2)c1Cl	inactive
CNC(=O)Nc1cc(-c2ccccc2)on1	inactive
O=C(CC[N+](=O)[O-])c1ccc(Cl)cc1Cl	inactive
C=CCc1c(-c2ccccc2)noc1Cl	inactive
FC(F)(F)c1cc(-c2ccccc2)no1	inactive
Nc1cc(-c2ccccc2)on1	inactive
Nc1noc(-c2ccccc2)c1Br	inactive
O=[N+]([O-])c1cc(-c2cc(Cl)no2)ccc1Cl	inactive
O=C(Nc1cc(-c2ccccc2)on1)C(F)(F)F	inactive
O=C(CC[N+](=O)[O-])c1ccc(Cl)c(Cl)c1	inactive
O=[N+]([O-])c1ccc(-c2cc(Cl)no2)cc1	inactive
Clc1ccc(-c2ccno2)cc1	inactive
Cc1ccc(C(=O)CC[N+](=O)[O-])cc1	inactive
O=C(Nc1noc(-c2ccccc2)c1Cl)C(F)(F)F	inactive
CS(=O)(=O)c1cc(-c2ccccc2)no1	inactive
C[S+]([O-])c1cc(-c2ccccc2)no1 (stereo not drawn)	inactive
Oc1cc(-c2ccc(Cl)cc2)on1	inactive
Nc1noc(-c2ccccc2)c1Cl	inactive
O=C(CC[N+](=O)[O-])c1ccc(Cl)cc1	inactive
CCSCCOc1cc(-c2ccccc2)no1	inactive
Clc1onc(-c2ccccc2)c1Cl	inactive
O=C(CC[N+](=O)[O-])c1cccs1	inactive
COC(=O)Nc1cc(-c2ccccc2)on1	inactive
c1ccc(-c2ccon2)cc1	inactive
CS(=O)(=O)Oc1cc(-c2ccccc2)on1	inactive
CSc1onc(-c2ccccc2)c1Cl	inactive
O=C(CC[N+](=O)[O-])c1ccccc1	inactive
c1ccc(CSc2cc(-c3ccccc3)no2)cc1	inactive

test system: Nippostrongylus brasiliensis; experiment: Anthelmintic activity against Nippostrongylus brasiliensisin in parasitized po dosed albino rat assessed as dose required to 75 % clearance relative to untreated control; assay type: functional; details: read-out: MED

SMILES	minimal effective dose [mg/kg]
Clc1ccc(-c2cc(Br)no2)cc1	250
Clc1cc(-c2cccs2)on1	250
CN(C)c1cc(-c2ccccc2)no1	125
Clc1ccc(-c2cc(Cl)no2)cc1	62
Clc1cc(-c2ccccc2)no1	16
Clc1noc(-c2ccccc2)c1Cl	31
Clc1cc(-c2ccccc2)on1	31
Clc1ccc(-c2cc(Cl)no2)c(Cl)c1	62
CSc1cc(-c2ccccc2)no1	31
Ic1cc(-c2ccccc2)on1	250
Brc1cc(-c2ccccc2)no1	16
Brc1cc(-c2ccccc2)on1	31
Clc1cc(-c2ccc(Cl)c(Cl)c2)on1	250
C=CCCCOc1cc(-c2ccccc2)no1	125
CCOc1cc(-c2ccccc2)no1	31
Cc1ccc(-c2cc(Cl)no2)cc1	500
CCSc1cc(-c2ccccc2)no1	125
c1ccc(-c2cc(N3CCOCC3)on2)cc1	500
COc1cc(-c2ccccc2)no1	31
